Here are results for 15 molecules from patent US10023593B2, “ALK kinase inhibitor, and preparation method and uses thereof” (BEIJING PEARL BIOTECHNOLOGY LIMITED LIABILITY COMPANY, priority 2014, dated 2018).

What is called IC50 is the concentration that gives 50% inhibition.

In experiment [1] the test system is NCI-H2228 cell line. In words: CellTiter-Glo cell proliferation inhibition on NCI-H2228 cell line. The settings on record: Homo sapiens, NCI-H2228, 96 h, NCI-H2228 cells, 5000 cells/well, 4 days drug treatment. It is filed as cell-based. As for the experimental part: 3. Cell Proliferation Inhibitory Activities of the Compounds of the Present Invention on NCI-H2228 Cell Line
? experimental method ? CellTiter-Glo® Luminescent Cell Viability Assay kit from Promega company was used to detect cell proliferation inhibitory activities of the compounds on NCI-H2228 cell line.
? instrument ? Envision 2104 plate reader from PerKinElmer company; Vi-Cell XR cell counter from Beckman Counter company; MCO-18AIC CO2 incubator from SANYO company.
? experiment material ? CellTiter-Glo® Luminescent Cell Viability Assay Kit (Promega company, catalog No. G7573); NCI-H2228 cell line (ATCC, catalog No. CRL-5935); RPMI-1640 medium (HyClone company, catalog No. SH30809.01B); fetal bovine serum (FBS) (Gibco company, catalog No. 10099-141); trypsin (Trypsin) (Gibco company, catalog No. 25200-072); PBS (HyClone company, catalog No. SH30256.01B); 96 wells cell culture plate (Corning company, catalog No. 3610); DMSO (AMRESCO company, catalog No. 0231); 96 wells plates (for diluting compounds) (CITOTEST company, catalog No. Ref36020096D);
? experimental condition ? NCI-H2228 cells in exponential growth phase were collected and treated with trypsin (Trypsin), and viable cells were counted by Vi-Cell XR cell counter. Cell suspension was adjusted to 62500 cells/ml with culture medium (RPMI-1640+10% FBS). 80 μl cell suspension was added into each well of 96 wells cell culture plate so that the final cell number of NCI-H2228 cells was 5000 cells/well. The cells were cultivated in an incubator with an atmosphere of 37° C., 5% CO2 and 95% humidity for 2 hours and then each well was added with 20 μl compounds in RPMI-1640 medium solution (the final concentration of DMSO was 0.5%). 4 days after drug treatment, each well was added with 50 μl CellTiter-Glo solution which was previously thawed and equilibrated to room temperature, and mixed for 2 minutes with microplate shaker. After placing at room temperature for 10 minutes, luminescence value was measured by PerkinElmer Envision 2104 plate reader and the data was analyzed.
? tested samples ? Compounds of the examples.
? data analysis ? Luminescence value of DMSO solvent control (Vvehicle control, which is the mean luminescence value from DMSO solvent control group)
Tested luminescence value (Vsample, which is the luminescence value from given concentration of compounds group) Inhibition rate (%)=(1−Vsample/Vvehicle control)×100
(§1) ? data processing ? IC50 of compounds was calculated by using XLfit program in Excel.
A general note: In ATP-based viability assays light output follows the ATP content of the culture.

The target in experiment [2] is T1, L1196M mutant ALK kinase (Homo sapiens, UniProt Q9UM73, L1196M).
T1 construct: purchased Sino-US Crown Bioscience, Inc. batch number ALKm_20110923
T1 sequence (Q9UM73 19-1620 L1196M): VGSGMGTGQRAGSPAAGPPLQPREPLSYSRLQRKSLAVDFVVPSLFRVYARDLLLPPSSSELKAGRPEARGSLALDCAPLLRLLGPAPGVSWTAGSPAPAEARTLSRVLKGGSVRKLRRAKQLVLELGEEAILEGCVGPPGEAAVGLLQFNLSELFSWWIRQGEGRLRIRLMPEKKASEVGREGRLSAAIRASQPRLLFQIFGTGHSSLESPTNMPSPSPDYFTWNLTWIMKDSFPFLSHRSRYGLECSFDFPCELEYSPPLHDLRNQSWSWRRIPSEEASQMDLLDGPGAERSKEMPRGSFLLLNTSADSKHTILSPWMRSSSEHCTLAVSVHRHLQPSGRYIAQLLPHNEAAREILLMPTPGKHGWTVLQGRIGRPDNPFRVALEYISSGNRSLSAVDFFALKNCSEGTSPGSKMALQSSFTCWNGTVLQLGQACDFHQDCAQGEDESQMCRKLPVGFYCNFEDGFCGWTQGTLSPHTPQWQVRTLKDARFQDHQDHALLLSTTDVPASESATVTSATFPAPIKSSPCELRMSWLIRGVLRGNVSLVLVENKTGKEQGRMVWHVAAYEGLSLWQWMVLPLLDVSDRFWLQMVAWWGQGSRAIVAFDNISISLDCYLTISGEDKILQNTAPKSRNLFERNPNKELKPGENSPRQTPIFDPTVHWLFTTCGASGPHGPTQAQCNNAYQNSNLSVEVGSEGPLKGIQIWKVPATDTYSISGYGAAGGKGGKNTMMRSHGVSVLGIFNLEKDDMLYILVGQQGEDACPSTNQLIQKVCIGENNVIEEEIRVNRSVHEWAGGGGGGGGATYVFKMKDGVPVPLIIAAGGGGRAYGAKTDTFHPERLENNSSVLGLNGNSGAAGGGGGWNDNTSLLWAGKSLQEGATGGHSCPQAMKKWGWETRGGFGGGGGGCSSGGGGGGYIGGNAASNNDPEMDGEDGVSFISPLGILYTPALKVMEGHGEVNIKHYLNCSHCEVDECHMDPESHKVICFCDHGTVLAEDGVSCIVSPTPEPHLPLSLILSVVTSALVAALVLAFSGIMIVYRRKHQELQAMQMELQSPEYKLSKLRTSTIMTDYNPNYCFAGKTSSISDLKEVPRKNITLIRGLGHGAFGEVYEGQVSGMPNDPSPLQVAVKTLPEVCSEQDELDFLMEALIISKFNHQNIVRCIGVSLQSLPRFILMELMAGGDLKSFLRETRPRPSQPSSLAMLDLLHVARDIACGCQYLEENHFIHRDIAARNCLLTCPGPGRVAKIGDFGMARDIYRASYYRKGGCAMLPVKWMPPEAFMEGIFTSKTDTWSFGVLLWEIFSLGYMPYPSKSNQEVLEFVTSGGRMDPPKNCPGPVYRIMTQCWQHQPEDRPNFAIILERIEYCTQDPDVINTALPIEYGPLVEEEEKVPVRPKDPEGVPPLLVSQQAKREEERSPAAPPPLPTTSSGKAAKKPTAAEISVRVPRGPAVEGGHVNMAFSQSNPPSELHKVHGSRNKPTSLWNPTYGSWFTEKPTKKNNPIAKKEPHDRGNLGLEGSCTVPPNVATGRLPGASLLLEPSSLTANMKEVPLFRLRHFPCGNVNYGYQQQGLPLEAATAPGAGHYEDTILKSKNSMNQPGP
In words: HTRF KinEASE-TK assay, inhibitory activity on L1196M mutant ALK kinase. The format is biochemical. Particulars: L1196M mutant ALK 1 ng/μl, substrate 1 μM, ATP 5 μM, 30° C. 35 minutes, read-out: Inhibition on ALK kinases (L1196M mutant), IC50.
Text: 2. Inhibitory Activities of the Compounds of the Present Invention on L1196M Mutant ALK Kinases
? experimental method ? HTRF KinEASE™-TK Assay kit from Cisbio company was used to detect inhibitory activities of the compounds on L1196M mutant ALK kinases.
(§2) ? instrument ? Envision 2104 plate reader from PerKinElmer company.
? experiment material ? HTRF KinEASE™-TK Assay Kit (Cisbio company, catalog No. 62TK0PEC); L1196M mutant ALK kinase (produced by Sino-US Crown Bioscience, Inc., batch number ALKm_20110923); DTT (Gibco BRL company, catalog No. 15508-012); MgCl2 (Sigma Aldrich company, catalog No. M-2670); ATP (Sigma Aldrich company, catalog No. A-7699, batch number 051M7014V); DMSO (AMRESCO company, catalog No. 0231); EDTA (AMRESCO company, catalog No. 0105); 96 wells plates (for diluting compounds) (CITOTEST company, catalog No. Ref36020096D); OptiPlate™-384 (White), PerkinElmer company, catalog No. P12-004)
(§3) ? experimental condition ? Compounds (the final concentration of DMSO was 1%), the reaction substrate (the final concentration was 1 μM), ATP (the final concentration was 5 μM), and L1196M mutant ALK kinases (the final concentration was 1 ng/μl) were mixed respectively in a final volume of 10 μl reaction system (containing 5 mM MgCl2, 1× Kinase buffer, and 1 mM DTT). The mixture was reacted at 30° C. for 35 minutes after shaking for 30 seconds. After completion of the reaction, each well was added with 5 μl Sa-XL665 and 5 μl TK Antibody-Eu(K), and placed in the dark for 60 minutes to end the reaction after uniform mixing. The data was read from PerkinElmer EnVision plate reader ([…]), the 665/615 ratio was calculated, and the data was analyzed.
(§4) ? tested samples ? Compounds from the examples.
(§5) ? data analysis ? Minimum 665/615 ratio (Rmin, 665/615 ratio under the condition that 10.4 μM positive control drug LDK-378 was added)
(§6) Maximum 665/615 ratio (Rmax, 665/615 ratio under the condition that no compound was added)
(§7) Tested 665/615 ratio (Rcompound, 665/615 ratio under the condition that a given concentration of compound was added) Inhibition rate (%)=[1−(Rcompound−Rmin)/(Rmax−Rmin)]×100
as §1
(In general: Time-resolved FRET reads energy transfer from a long-lived donor to a nearby acceptor.)

In experiment [3] the target is T2, Wild Type ALK kinase (Homo sapiens, UniProt Q9UM73).
T2 construct: purchased Sino-US Crown Bioscience, Inc. batch number ALK 20110607
T2 sequence (Q9UM73 19-1620): as the sequence (Q9UM73 19-1620 L1196M) above, with M1178L counted along it
In words: HTRF KinEASE-TK assay, inhibitory activity on wild type ALK kinase. The settings on record: wild type ALK 1 ng/μl, substrate 1 μM, 30° C. 35 minutes, read-out: Inhibition on ALK kinases (wildtype), IC50. It is filed as biochemical.
Text: 1. Inhibitory Activities of the Compounds of the Present Invention on Wild Type ALK Kinases
? experimental method ? HTRF KinEASE™-TK Assay kit from Cisbio company was used to detect inhibitory activities of the compounds on wildtype ALK kinases (wild type ALK kinases).
as §2
? experiment material ? HTRF KinEASE™-TK Assay Kit (Cisbio company, catalog No. 62TK0PEC); Wild Type ALK kinase (produced by Sino-US Crown Bioscience, Inc., batch number ALK 20110607); DTT (Gibco BRL company, catalog No. 15508-012); MgCl2 (Sigma Aldrich company, catalog No. M-2670); ATP (Sigma Aldrich company, catalog No. A-7699); DMSO (AMRESCO company, catalog No. 0231); EDTA (AMRESCO company, catalog No. 0105); 96 wells plates (for diluting compounds) (CITOTEST company, catalog No. Ref36020096D); OptiPlate™-384 (White), PerkinElmer company, catalog No. P12-004)
as §3, with “[…]),” for “5 μM),”, “Wildtype” for “L1196M mutant”
as §4, §5, §6, §7, §1

Consider `Cc1cc(Nc2ncc(Cl)c(Nc3cn(C)nc3S(=O)(=O)C(C)C)n2)c(C(C)C)cc1C1CCN(C)CC1` [Final product 33], for which the figures for the IC50 in experiment [1], in experiment [2] and in experiment [3] were 660 nM, 28 nM and 12 nM, respectively.

For the molecule `Cc1cc(Nc2ncc(Cl)c(Nc3cn(C)nc3S(=O)(=O)C3CCC3)n2)c(OC2CC2)cc1C1CCN(C)CC1` [Final product 52], the IC50 stood at 76 nM in experiment [1], 15 nM in experiment [2] and 2 nM in experiment [3].

Regarding `Cc1cc(Nc2ncc(F)c(Nc3cn(C)nc3S(=O)(=O)C(C)C)n2)c(OC2CC2)cc1C1CCN(C)CC1` [Final product 70], the half-inhibitory concentration (IC50) in experiment [1] amounted to 81 nM; in experiment [2], 18 nM; in experiment [3], 2 nM.

`Cc1cc(Nc2ncc(C)c(Nc3cn(C)nc3S(=O)(=O)C(C)C)n2)c(OC2CC2)cc1C1CCN(C)CC1` [Final product 72]: the half-inhibitory concentration (IC50) in experiment [1] was determined as 69 nM; in experiment [2] it was 6 nM; in experiment [3], 1 nM.

Regarding `Cc1cc(Nc2ncc(Cl)c(Nc3cn(C)nc3S(=O)(=O)C(C)C)n2)c(OC2CC2)cc1C1CCN(C)C(C)C1` (stereo not shown) [Final product 92], the IC50 in experiment [1] came to 48 nM; in experiment [2], 5 nM; in experiment [3], 2 nM.

In the case of `Cc1nc(S(=O)(=O)C(C)C)c(Nc2nc(Nc3cc(C)c(C4CCN(C)CC4)cc3OC3CC3)ncc2Cl)s1` [Final product 113], the IC50 turned out to be 150 nM in experiment [1], 22 nM in experiment [2] and 6 nM in experiment [3].

Consider `Cc1cc(Nc2ncc(Cl)c(Nc3cn(C)nc3S(=O)(=O)C(C)C)n2)c(OC2CC2)cc1C1CCN(C(C)C)CC1` [Final product 123, 5-chloro-N^2-[2-cyclopropoxy-4-(1-isopropylpiperidin-4-yl)-5-methyl-phenyl]-N^4-[1-methyl-3-(isopropylsulfonyl)-1H-pyrazol-4-yl]-pyrimidin-2,4-diamine], for which the IC50 in experiment [2] was 5 nM; in experiment [3], 2 nM.

On to `Cc1cc(Nc2ncc(Cl)c(Nc3cn(C)nc3S(=O)(=O)C(C)C)n2)c(OC2CC2)cc1C1CCN(C(=O)C(C)C)CC1` [Final product 163, 1-isobutyryl-4-(4-(5-chloro-4-(3-(isopropylsulfonyl)-1-methyl-1H-pyrazol-4-amino)pyrimidin-2-amine)-5-cyclopropoxy-2-methylphenyl)piperidine], for which the IC50 amounted to 149 nM in experiment [1], 29 nM in experiment [2] and 26 nM in experiment [3].

Consider `Cc1cc(Nc2ncc(Cl)c(Nc3cn(C)nc3S(=O)(=O)CC(C)C)n2)c(OC(C)C)cc1C1CN(S(C)(=O)=O)C1` [Final product 169], for which the IC50 in experiment [1] amounted to 133 nM; in experiment [2], 43 nM; in experiment [3], 68 nM.

Turning to `CCN(CC)[C@H]1CC[C@@H](c2cc(OC3CC3)c(Nc3ncc(Cl)c(Nc4cn(C)nc4S(=O)(=O)C(C)C)n3)cc2C)CC1` [Final product 191], the figures for the IC50 in experiment [1], in experiment [2] and in experiment [3] were 60 nM, 17 nM and 8 nM, respectively.

In the case of `CCN(CC)[C@H]1CC[C@H](c2cc(OC3CC3)c(Nc3ncc(Cl)c(Nc4cn(C)nc4S(=O)(=O)C(C)C)n3)cc2C)CC1` [Final product 192], the half-inhibitory concentration (IC50) in experiment [1] was found to be 68 nM; in experiment [2] it was 12 nM; in experiment [3], 9 nM.

Consider `CC(=O)N1CCN([C@H]2CC[C@@H](c3cc(OC4CC4)c(Nc4ncc(Cl)c(Nc5cn(C)nc5S(=O)(=O)C(C)C)n4)cc3C)CC2)CC1` [Final product 203], for which the 50% inhibitory concentration (IC50) in experiment [1] was determined as 189 nM.

`Cc1cc(Nc2ncc(Cl)c(Nc3cn(C)nc3S(=O)(=O)C(C)C)n2)c(OC2CC2)cc1[C@H]1CC[C@H](NC(=O)C2CC2)CC1` [Final product 207, N-(4-(4-(5-chloro-4-(3-(isopropylsulfonyl)-1-methyl-1H-pyrazol-4-amine)pyrimidin-2-amine)-5-cyclopropoxy-2-methylphenyl)cyclohexyl) cyclopropyl carboxamide] returned a half-maximal inhibitory concentration (IC50) in experiment [1] of 154 nM.

With `Cc1cc(Nc2ncc(C(F)(F)F)c(Nc3cn(C)nc3S(=O)(=O)C(C)C)n2)c(OC2CC2)cc1C1CCN(C)CC1` [Final product 209, N^2-[2-cyclopropoxy-4-(1-methyl-piperidin-4-yl)-5-methylphenyl]-N^4-[1-methyl-3-(isopropylsulfonyl)-1H-pyrazol-4-yl]-5-(trifluoromethyl)pyrimidin-2,4-diamine], the IC50 in experiment [1] was 71 nM; in experiment [2] it was 9 nM; in experiment [3], 3 nM.

As to `Cc1cc(Nc2ncc(C#N)c(Nc3cn(C)nc3S(=O)(=O)C(C)C)n2)c(OC2CC2)cc1C1CCN(C)CC1` [Final product 210, N^2-[2-cyclopropoxy-4-(1-methyl-piperidin-4-yl)-5-methyl-phenyl]-N^4-[1-methyl-3-(isopropylsulfonyl)-1H-pyrazol-4-yl]-5-(cyano)pyrimidin-2,4-diamine], the 50% inhibitory concentration (IC50) in experiment [1] worked out at 87 nM; in experiment [2], 4 nM; in experiment [3], 2 nM.
